Measurements as given in patent publication US20260248771A1, “VALBENAZINE, A VMAT2 INHIBITOR, AS A FREE BASE A TOSYLATE OR DITOSYLATE SALT, FOR USE IN THE TREATMENT OF CHOREA ASSOCIATED WITH HUNTINGTON'S DISEASE” (Neurocrine Biosciences, Inc., priority 2022, published 2026).

Assays:
Format in all cases: in vivo, human
subjects with HD [1] = assay: Phase 3 study: UHDRS total motor score (TMS); details: MMRM model; valbenazine vs placebo
Source text: As used herein, “Unified Huntington Disease Rating Scale” or “UHDRS” is the standard clinical assessment tool in Huntington disease. The UHDRS is divided into four domains: motor performance, cognitive function, behavioral abnormalities, and functional abilities. The motor section consists of 31 items assessing oculomotor, bradykinesia/rigidity, dystonia, chorea, and gait/balance. The items are rated from zero to four, with zero indicating normal findings and four indicating severe abnormalities. The range of the Total Motor Score (TMS) is 0 to 124, with higher scores indicating more severe motor impairment. The cognitive component includes the verbal fluency test, the symbol digit modalities test, and the Stroop test (color naming, word reading, and interference). Lower scores indicate worse cognitive performance. The behavioral assessment measures the frequency and severity of 11 items, which are rated from zero (almost never/absent) to four (almost always/severe). The items assess depression, anxiety, aggression, psychosis, and other behavioral abnormalities. The behavioral score ranges from 0 to 88, with higher scores indicating more severe psychiatric abnormalities. The functional domain comprises three components, namely the total functional capacity (TFC), the functional assessment scale (FAS), and the independence scale (IS). […]

subjects with HD [2] = assay: Phase 3 study: Patient Global Impression of Change (PGI-C) response status
Source text: In certain embodiments, the method is effective to result in an improvement in Patient Global Impression of Change (PGI-C) response status, wherein subjects whose score is either a 1 (“very much improved”) or a 2 (“much improved”) in PGI-C were classified as responders. In certain embodiments, at least about 20%, such as at least about 25%, at least about 30%, at least about 35%, at least about 40%, at least about 50%, at least about 55%, were classified as responders. In certain embodiments, at least about 25% of subjects were classified as responders after 12 weeks of treatment.
(§1) A Phase 3, randomized, double-blind, placebo-controlled study to evaluate the efficacy, safety, and tolerability of once-daily valbenazine in subjects with HD was conducted. The study included a 4-week screening period, an 8-week dose-adjustment period, a 4-week maintenance period, and a final study visit 2 weeks following the final dose of study drug.
(§2) Secondary endpoints included: • Clinical Global Impression of Change (CGI-C) response status ([…] of “very much improved” or “much improved”) at Week 12; • Patient Global Impression of Change (PGI-C) response status ([…] of “very much improved” or “much improved”) at Week 12; • Change from baseline to Week 12 in the Quality of Life in Neurological Disorders Upper Extremity Function; and • Change from baseline to Week 12 in the Neuro-QoL Lower Extremity Function.
(§3) Exploratory endpoints included: • Wearable movement sensors (in select sites; optional participation) using MC10 Inc., BIOSTAMP® NPOINT® system • Huntington Disease Health Index • Changes from the screening period baseline to each postbaseline study visit (Weeks 2 through 12) in the TMC based on site assessments • Changes from the screening period baseline to maintenance (the average of the Week 10 and Week 12 assessments) in the TMC based on video recording central rater assessments • CGI-C response at Weeks 2 through 10 • PGI-C response at Weeks 2 through 10 • The change from baseline to Weeks 4, 8, and 10 in the Neuro-QoL Upper Extremity Function T-score. • The change from baseline to Weeks 4, 8, and 10 in the Neuro-QoL Lower Extremity Function T-score • CGI-S at Weeks 2 through 12 • PGI-S at Weeks 2 through 12 • SF-36 at Week 12 • HD-HI at Week 10 and Week 12 • EQ-5D-5L at Week 10 and Week 12 • UHDRS scores for motor, behavior, and functional capacity assessment at Weeks 2 through 12 • Other UHDRS scores including functional assessment and independence scale at Week 12 • AS at Week 12 • Change from screening period in physical activity by movement sensors at the Week 10 visit period

subjects with HD [3] = assay: Phase 3 study: Clinical Global Impression of Change (CGI-C) response status
Source text: As used herein, “Clinical Global Impression of Change” or CGI-C refers to a rating instrument based on a 7-point scale (range: 1=very much improved to 7-very much worse) that can be used to rate the overall global improvement of chorea since the initiation of study drug dosing. This scale is a modification of a scale developed by the Psychopharmacology Research Branch of the National Institute of Mental Health to rate the subject's overall improvement in clinical disorder and provides a global evaluation of improvement over time from the clinician's perspective.
In certain embodiments, the method is effective to result in an improvement in Clinical Global Impression of Change (CGI-C) response status, wherein subjects whose score is either a 1 (“very much improved”) or a 2 (“much improved”) in CGI-C were classified as responders. In certain embodiments, at least about 9% of subjects were classified as responders. In certain embodiments, at least about 10%, such as at least about 15%, at least about 20%, at least about 25%, or at least about 30% of subjects were classified as responders. In certain embodiments, at least about 25%, or at least about 30% of subjects were classified as responders after 12 weeks of treatment.
as §1, §2, §3

[4] = Week 12, valbenazine vs placebo

SMILES: COc1cc2c(cc1OC)[C@H]1C[C@@H](OC(=O)[C@@H](N)C(C)C)[C@H](CC(C)C)CN1CC2 [Valbenazine, (S)-2-amino-3-methyl-butyric acid (2R,3R,11bR)-3-isobutyl-9,10-dimethoxy-1,3,4,6,7,11b-hexahydro-2H-pyrido[2,1-a]isoquinolin-2-yl ester]
- TMS score LS mean difference, change from screening period baseline to maintenance (subjects with HD [1]): groups: LS mean difference −3.99 (95% CI: −6.27, −1.70); p = 0.0008
- PGI-C response rate difference between treatment groups (valbenazine minus placebo) (subjects with HD [2]; Week 2): through 10 as follows: Week 2 (18.52% [95% CI: 5.48, 31.41],
- PGI-C response rate difference between treatment groups (valbenazine minus placebo) (subjects with HD [2]; Week 4): nominal p = 0.0042), Week 4 (18.57% [95% CI: 3.79, 32.70], nominal
- PGI-C response rate difference between treatment groups (valbenazine minus placebo) (subjects with HD [2]; Week 6): p = 0.0120), Week 6 (23.08% [95% CI: 5.60, 39.04], nominal
- PGI-C response rate difference between treatment groups (valbenazine minus placebo) (subjects with HD [2]; Week 8): p = 0.0064), Week 8 (26.44% [95% CI: 7.70, 42.49], nominal
- PGI-C response rate difference between treatment groups (valbenazine minus placebo) (subjects with HD [2]; Week 10): p = 0.0037), and Week 10 (16.94% [95% CI: −1.37, 34.63], nominal
- PGI-C @ week 12, % responders (subjects with HD [2]; Week 12, valbenazine group): 52.7%
- PGI-C @ week 12, % responders, Difference (subjects with HD [2]; [4]): 26.3%
- CGI-C response rate difference between treatment groups (valbenazine minus placebo) (subjects with HD [3]; Week 2): follows: Week 2 (7.71% [95% CI: −0.93, 17.87], nominal p = 0.1157),
- CGI-C response rate difference between treatment groups (valbenazine minus placebo) (subjects with HD [3]; Week 4): Week 4 (20.42% [95% CI: 7.53, 33.00], nominal p = 0.0012), Week 6
- CGI-C response rate difference between treatment groups (valbenazine minus placebo) (subjects with HD [3]; Week 6): (20.14% [95% CI: 4.04, 35.89], nominal p = 0.0151), Week 8
- CGI-C response rate difference between treatment groups (valbenazine minus placebo) (subjects with HD [3]; Week 8): (34.50% [95% CI: 16.46, 49.76], nominal p = 0.0001), and Week 10
- CGI-C response rate difference between treatment groups (valbenazine minus placebo) (subjects with HD [3]; Week 10): (24.80% [95% CI: 6.55, 41.18], nominal p = 0.0065).
- CGI-C @ week 12, % responders (subjects with HD [3]; Week 12, valbenazine group): 42.9%
- CGI-C @ week 12, % responders, Difference (subjects with HD [3]; [4]): 29.7%
